From patent US12232493B2, “Biopesticide formulation and treatment method thereof” (Xinjiang Institute of Ecology and Geography, Chinese …, priority 2023, dated 2025)

What was measured:
pakchoi = experiment: Pot experiment under drought treatment, terrein seed soaking or spraying, pakchoi; assay type: in vivo
Procedure: (§1) An embodiment of effects of 2 μg/mL terrein formulation on the growth of four crops by seed soaking treatment under drought conditions is as follows. Terrein (purity 95%) is prepared as a solution with a concentration of 2 μg/mL in distilled water, and pakchoi, mung bean, sorghum, and wheat seeds are soaked in it for 6 hours, and the seeds are also soaked in distilled water as a blank control. Subsequently, the soaked crop seeds are sown into potted plants, and each of the treatment group is replicated five times. When the seedlings grew to about 10 cm, the drought treatment culture is carried out. The room temperature is 25° C., the humidity is 70%, 12 hours of light and 12 hours of darkness each day, and the light intensity is 80-100 μmol·m^−2·s^−1. During the period, the soil was kept in a dry state, and 200 mL is watered every week for 30 days, with a total of 800 mL. The drought culture conditions described below are all treated in the same way. After 30 days, the root length, seedling height, and fresh weight of pakchoi, mung bean, sorghum, and wheat are measured, and 10 seedlings are selected from each of the treatment groups, with a total of 50 plants (N=50), hereafter, they are dried in an oven and then measured dry weight. The growth rates of root length, seedling height, fresh weight, and dry weight of pakchoi, mung bean, sorghum, and wheat under 2 μg/mL compared to the blank control are first calculated, that is, An embodiment of effects of 10 μg/mL terrein formulation on the growth of four crops by seed soaking treatment under drought conditions is as follows. Terrein is prepared as a solution with a concentration of 10 μg/mL in distilled water, and pakchoi, mung bean, sorghum, and wheat seeds are soaked in it for 6 hours, and the seeds are also soaked in distilled water as a blank control. Subsequently, the soaked crop seeds are sown into potted plants. When the seedlings grew to about 10 cm, the drought treatment culture is carried out. After 30 days, the root length, seedling height, and fresh weight of pakchoi, mung bean, sorghum, and wheat are measured, hereafter, they are dried in an oven and then measured dry weight. An embodiment of effects of 2 μg/mL terrein formulation on the growth of four crops by spraying treatment under drought conditions is as follows. Seeds of four tested plants are soaked in distilled water and then sowing. Terrein is prepared as a solution with a concentration of 2 μg/mL in distilled water. When the potted pakchoi, mung bean, sorghum, and wheat grow to about 10 cm (15-20 days after sowing), spray them once, with an amount of about 3 mL, and distilled water sprayed used as blank control. Subsequently, the drought treatment culture is carried out. The room temperature is 25° C., the humidity is 70%, 12 hours of light and 12 hours of darkness each day, and the light intensity is 80-100 μmol·m^−2·s^−1. During the period, the soil was kept in a dry state, and 200 mL is watered every week for 30 days, with a total of 800 mL. After 30 days, the root length, seedling height, and fresh weight of pakchoi, mung bean, sorghum, and wheat are measured, hereafter, they are dried in an oven and then measured dry weight. An embodiment of effects of 10 μg/mL terrein formulation on the growth of four crops by spraying treatment under drought conditions is as follows. Seeds of four tested plants are soaked in distilled water and then sowing. Terrein is prepared as a solution with a concentration of 10 μg/mL in distilled water. When the potted pakchoi, mung bean, sorghum, and wheat grow to about 10 cm (15-20 days after sowing), spray them once, with an amount of about 3 mL, and distilled water sprayed used as blank control. Subsequently, the drought treatment is carried out. After 30 days, the root length, seedling height, and fresh weight of pakchoi, mung bean, sorghum, and wheat are measured, hereafter, they are dried in an oven and then measured dry weight. […]

mung bean = experiment: Pot experiment under drought treatment, terrein seed soaking or spraying, mung bean; assay type: in vivo
Procedure: as §1

[1] = 2 μg/mL terrein seed soaking treatment, drought, 30 days
[2] = 2 μg/mL terrein seed soaking, drought, 30 days
[3] = 2 μg/mL terrein seed soaking, drought, 30 days, p<0.05
[4] = 2 μg/mL terrein spraying at seedling stage
[5] = 2 μg/mL terrein spraying treatment, drought, 30 days
[6] = 2 μg/mL terrein spraying, drought, 30 days
[7] = 10 μg/mL terrein seed soaking treatment, drought, 30 days
[8] = 10 μg/mL terrein seed soaking, drought
[9] = 10 μg/mL terrein seed soaking, drought, 30 days
[10] = 10 μg/mL terrein spraying treatment, drought, 30 days
[11] = 10 μg/mL terrein spraying, drought
[12] = 10 μg/mL terrein spraying, drought, 30 days

In the case of `C/C=C/C1=CC(=O)[C@H](O)[C@H]1O` [terrein], the effect on growth (pakchoi; 2 μg/mL terrein seed soaking) was “significantly promote”, the dry weight (pakchoi; [1]) was 0.16 g and the fresh weight (pakchoi; [1]) was 1.91 g. For the same compound, the root length (pakchoi; [1]) was 15.46 cm, the seedling height (pakchoi; [1]) was 11.45 cm and the “growth rate of dry weight compared with the blank control” value (pakchoi; [2]) was 32.47%. The “growth rate of root length compared with the blank control” value (pakchoi; [2]) was 76.63%, the “effect on fresh weight compared with the blank control” value (pakchoi; [3]) was “not significant” and the “effect on seedling height compared with the blank control” value (pakchoi; [3]) was “not significant”. For the same compound, the effect on growth (pakchoi; [4]) was “significant promoting effect”, the dry weight (pakchoi; [5]) was 0.13 g and the fresh weight (pakchoi; [5]) was 1.75 g. The root length (pakchoi; [5]) was 11.59 cm, the seedling height (pakchoi; [5]) was 11.40 cm and the “growth rate of root length compared with the blank control” value (pakchoi; [6]) was 32.48%. The dry weight (pakchoi; [7]) was 0.18 g, the fresh weight (pakchoi; [7]) was 2.45 g and the root length (pakchoi; [7]) was 17.43 cm. For the same compound, the seedling height (pakchoi; [7]) was 12.21 cm, the effect on growth (pakchoi; [8]) was “significant promoting effect” and the “growth rate (promotion rate) of dry weight compared with the blank control” value (pakchoi; [9]) was 49.12%. The “growth rate (promotion rate) of fresh weight compared with the blank control” value (pakchoi; [9]) was 40.34%, the “growth rate (promotion rate) of root length compared with the blank control” value (pakchoi; [9]) was 99.19% and the “growth rate (promotion rate) of seedling height compared with the blank control” value (pakchoi; [9]) was 15.66%. For the same compound, the dry weight (pakchoi; [10]) was 0.14 g, the fresh weight (pakchoi; [10]) was 1.85 g and the root length (pakchoi; [10]) was 10.19 cm. For the same compound, the seedling height (pakchoi; [10]) was 10.73 cm, the effect on growth (pakchoi; [11]) was “significant promoting effects” and the “growth rate of root length compared with the blank control” value (pakchoi; [12]) was 16.45%. For the same compound, the effect on growth (mung bean; 2 μg/mL terrein seed soaking) was “significantly promote”, the dry weight (mung bean; [1]) was 0.15 g and the fresh weight (mung bean; [1]) was 0.98 g. The root length (mung bean; [1]) was 14.19 cm, the seedling height (mung bean; [1]) was 22.54 cm and the “growth rate of dry weight compared with the blank control” value (mung bean; [2]) was 28.07%. For the same compound, the “growth rate of root length compared with the blank control” value (mung bean; [2]) was 44.72%, the “effect on fresh weight compared with the blank control” value (mung bean; [3]) was “not significant” and the “effect on seedling height compared with the blank control” value (mung bean; [3]) was “not significant”. For the same compound, the effect on growth (mung bean; [4]) was “significant promoting effect”, the dry weight (mung bean; [5]) was 0.14 g and the fresh weight (mung bean; [5]) was 0.92 g. The root length (mung bean; [5]) was 15.88 cm, the seedling height (mung bean; [5]) was 23.99 cm and the “growth rate of root length compared with the blank control” value (mung bean; [6]) was 61.95%. It also gave a dry weight (mung bean; [7]) of 0.16 g, a fresh weight (mung bean; [7]) of 0.87 g and a root length (mung bean; [7]) of 12.84 cm. For the same compound, the seedling height (mung bean; [7]) was 24.21 cm, the effect on growth (mung bean; [8]) was “significant promoting effect” and the “growth rate of dry weight compared with the blank control” value (mung bean; [9]) was 35.65%. The “growth rate of root length compared with the blank control” value (mung bean; [9]) was 30.92%, the dry weight (mung bean; [10]) was 0.15 g and the fresh weight (mung bean; [10]) was 1.16 g. For the same compound, the root length (mung bean; [10]) was 15.42 cm, the seedling height (mung bean; [10]) was 22.08 cm and the effect on growth (mung bean; [11]) was “significant promoting effects”. For the same compound, the “growth rate (promotion rate) of dry weight compared with the blank control” value (mung bean; [12]) was 26.98%, the “growth rate (promotion rate) of fresh weight compared with the blank control” value (mung bean; [12]) was 56.18% and the “growth rate (promotion rate) of root length compared with the blank control” value (mung bean; [12]) was 57.20%.
